Data: US7811760B2, “Vector and method for detecting the change in transcription amount” (priority 2006, dated 2010)

What was measured:
SD-line rat AhR = target: T1, SD-line rat AhR (Rattus norvegicus, UniProt P41738, Q794H); test: Reporter gene assay in Neuro2a with pTHE100×3/Luc and pcDNA4-rAhR; assay type: cell-based; details: 1 to 10,000 pM TCDD
T1 construct: The SD-line rat AhR gene-coding region was amplified from the reverse-transcribed sample by means of PCR; V5-His (C-terminal tag of vector pcDNA4/V5-His B); expressed in transfected cells; host or cells: mouse neuroblastoma Neuro2a, transient transfection with LIPOFECTAMINE 2000
T1 sequence (P41738 10-853 Q794H): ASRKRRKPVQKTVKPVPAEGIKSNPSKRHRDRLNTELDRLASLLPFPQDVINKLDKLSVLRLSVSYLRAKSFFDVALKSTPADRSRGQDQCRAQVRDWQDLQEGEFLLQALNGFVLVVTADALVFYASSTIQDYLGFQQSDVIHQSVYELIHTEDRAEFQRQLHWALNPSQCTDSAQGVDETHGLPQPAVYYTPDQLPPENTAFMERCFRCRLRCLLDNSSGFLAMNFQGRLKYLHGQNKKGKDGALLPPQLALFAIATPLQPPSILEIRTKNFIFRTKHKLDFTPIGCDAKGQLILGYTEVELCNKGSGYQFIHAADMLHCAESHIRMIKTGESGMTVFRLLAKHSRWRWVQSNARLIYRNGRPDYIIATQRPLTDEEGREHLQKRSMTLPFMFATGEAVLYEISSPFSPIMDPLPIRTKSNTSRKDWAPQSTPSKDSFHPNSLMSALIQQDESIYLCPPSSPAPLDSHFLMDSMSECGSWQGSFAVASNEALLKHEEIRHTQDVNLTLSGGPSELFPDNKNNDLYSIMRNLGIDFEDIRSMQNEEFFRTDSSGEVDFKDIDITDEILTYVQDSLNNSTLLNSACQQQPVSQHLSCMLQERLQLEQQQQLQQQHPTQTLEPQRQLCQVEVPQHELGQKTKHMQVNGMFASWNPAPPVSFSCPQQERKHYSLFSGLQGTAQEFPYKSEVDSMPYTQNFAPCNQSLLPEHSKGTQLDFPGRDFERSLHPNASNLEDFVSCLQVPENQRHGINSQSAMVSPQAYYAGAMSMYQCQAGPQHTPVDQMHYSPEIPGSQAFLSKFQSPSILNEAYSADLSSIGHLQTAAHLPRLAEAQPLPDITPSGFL
Text: In Example 8, the vector pTHE100×3/Luc (Example 7, FIG. 7A) was used as the vector containing a reporter gene, and Neuro2a was used as the cell.
In this Example, a combination of pcDNA4-rAhR (Example 1) containing the SD-line rat AhR gene and pcDNA4/V5-His/lacZ (Invitrogen), as well as a combination of PGV-mAhR (Example 1) containing the C57/BL6-line mouse AhR gene and pcDNA4/V5-His/lacZ were used as the vectors for introducing into the cell together with pTHE100×3/Luc. pcDNA4-rAhR was introduced into the cell for constitutive expression of the SD-line rat AhR (SEQ ID No: 10); PGV-mAhR was introduced into the cell for constitutive expression of C57/BL6-line mouse AhR (SEQ ID No: 11); and pcDNA4/V5-His/lacZ was introduced into the cell for normalization of the transfection efficiency of the vector.
The vectors were introduced into the cell by using LIPOFECTAMINE 2000, similarly to the method described in Example 3. After the above vectors were introduced into the cell, the obtained cell was exposed to 1 to 10,000 pM of TCDD to examine the increase in expression amount of the reporter gene in response to TCDD.

[1] = target: T2, aryl hydrocarbon receptor (Rattus norvegicus, UniProt P41738, Q794H); test: Reporter gene assay in Neuro2a with vectors having TH transcriptional regulatory regions different in length; assay type: cell-based, SD-line rat; details: 10 nM TCDD
T2 construct: The SD-line rat AhR gene-coding region was amplified from the reverse-transcribed sample by means of PCR; V5-His (C-terminal tag of vector pcDNA4/V5-His B); expressed in transfected cells; host or cells: mouse neuroblastoma Neuro2a, transient transfection with LIPOFECTAMINE 2000
T2 sequence (P41738 10-853 Q794H): T1 sequence (P41738 10-853 Q794H)
Experimental: Shorter fragments of TH transcriptional regulatory region (i.e., 2.0 kbp, 1.5 kbp, 1.0 kbp and 500 bp of fragments) were prepared by PCR using the 2.5 kbp of the TH transcriptional regulatory region incorporated into PGV-THp25 as a template. The following different forward primers were used for each fragment: 2.0-kbp fragment:
As the reverse primer, a common primer (5′-[…]-3′ (SEQ ID No: 17)) was used. Recognition sequence for a restriction enzyme KpnI was added to the terminal of each forward primer, and recognition sequence for a restriction enzyme NheI was added to the terminal of the reverse primer, in order to facilitate incorporation of the PCR amplification fragments into the vector. Pyrobest DNA polymerase (Takara Bio Inc.) was used in the PCR. The amplified TH transcriptional regulatory region fragments were digested with restriction enzymes KpnI and NheI, and subjected to electrophoresis on agarose. The corresponding bands were purified with a QIAQUICK Gel Extraction Kit (manufactured by Qiagen) and incorporated into PGV-B2 vector (TOYO B-NET) previously digested with KpnI and NheI.
These vectors were introduced into Neuro2a by a method similar to Example 3. The obtained cell was exposed to 10 nM TCDD, and the change in the expression amount of the reporter gene was examined in the cell (FIG. 3).
For narrowing down the region involved in transcriptional regulation by the test substance, shorter fragments of the transcriptional regulatory region (i.e., 400 bp, 300 bp, 200 bp and 100 bp of fragments) were prepared by PCR using the 500 bp of the TH transcriptional regulatory region as a template. The following forward primers were used for each fragment.
As the reverse primer, a common primer (5′-[…]-3′ (SEQ ID No: 17)) was used. Recognition sequence for a restriction enzyme KpnI was added to the terminal of each forward primer, and recognition sequence for a restriction enzyme NheI was added to the terminal of the reverse primer. The DNA fragments were amplified by using Pyrobest DNA polymerase (Takara Bio Inc.). […]

Clc1cc2c(cc1Cl)Oc1cc(Cl)c(Cl)cc1O2 [TCDD, 2,3,7,8-tetrachlorodibenzo-p-dioxine]
transcriptional response, rat AhR compared with mouse AhR (SD-line rat AhR): transcriptional response greater than that of the C57/BL6-line mouse AhR | induction of transcription of the reporter gene in response to TCDD (SD-line rat AhR; SD-line rat AhR): effective in inducing transcription of the reporter gene | change in the expression amount of the reporter gene (response) ([1]; all vectors with TH transcriptional regulatory regions of 2.5 kbp to 500 bp): there was a response to TCDD | change in the expression amount of the reporter gene (response) ([1]; vectors with TH transcriptional regulatory region of 500 bp, 400 bp or 300 bp): there was a response to TCDD | change in the expression amount of the reporter gene (response) ([1]; vectors with region of 200 bp or 100 bp): no response to TCDD
